Data on one compound can be found in publication PMC12320284, “Biochemical and biological evaluation of L-glutaminase from Aspergillus tamarii AUMC 10198 via solid-state fermentation” (Microbial Cell Factories, 2025).

This experiment deals with T1, L-glutaminase (Aspergillus tamarii AUMC 10198).
T1 construct: gene gtaA; approx. 62 kDa by SDS-PAGE, single band
The experiment is described as follows: Nesslerization ammonia assay, […] nm; Lineweaver-Burk plot. It counts as biochemical. As to conditions: standard assay conditions (0.1 M citrate-phosphate pH 7, 30 °C, 30 min as described for the crude enzyme); 0.2-2.0 mg/ml L-glutamine; apparent Km.

The Km is the substrate concentration at which the rate is half of its maximum.

For `NC(=O)CC[C@H](N)C(=O)O` [L-glutamine], the Km was 0.28 mg/mL.
